Laboratory results taken from publication PMC5386672, “Structure-guided design of purine-based probes for selective Nek2 inhibition” (Oncotarget, 2016).
Entries after “also recorded” stand apart in the source; their conditions may differ.

Experiments:
[1] = test system: Nek2; conditions: read-out: Nek2 inhibitory activity IC50; cited from earlier work
[2] = target: T1, Nek2 (Homo sapiens, UniProt P51955); assay: Nek2 Caliper kinase inhibition assay; assay type: biochemical; conditions: 30 μM ATP; for inhibition at 50 µM: @ 50 μM compound
T1 construct: purchased Invitrogen
T1 sequence (P51955 1-445): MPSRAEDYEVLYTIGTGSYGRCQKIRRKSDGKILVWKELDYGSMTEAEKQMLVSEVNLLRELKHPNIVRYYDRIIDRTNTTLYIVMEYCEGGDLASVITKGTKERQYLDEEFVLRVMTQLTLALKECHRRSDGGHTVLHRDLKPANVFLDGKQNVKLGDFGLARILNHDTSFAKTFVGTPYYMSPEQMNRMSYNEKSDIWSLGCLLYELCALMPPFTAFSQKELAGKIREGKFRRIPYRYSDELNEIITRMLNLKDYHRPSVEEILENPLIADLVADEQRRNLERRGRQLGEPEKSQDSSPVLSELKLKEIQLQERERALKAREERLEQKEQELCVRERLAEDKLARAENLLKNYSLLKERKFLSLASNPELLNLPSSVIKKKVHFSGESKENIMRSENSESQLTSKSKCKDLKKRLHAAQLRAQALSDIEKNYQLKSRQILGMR

[3] = target: CDK2 (Homo sapiens, UniProt P24941); assay: CDK2 kinase inhibition assay; assay type: biochemical; conditions: 12.5 μM ATP
[4] = target: Plk1 (Homo sapiens, UniProt P53350); assay: Separate counter-screen against Plk1; assay type: biochemical
Plk1, sequence (P53350 whole entry): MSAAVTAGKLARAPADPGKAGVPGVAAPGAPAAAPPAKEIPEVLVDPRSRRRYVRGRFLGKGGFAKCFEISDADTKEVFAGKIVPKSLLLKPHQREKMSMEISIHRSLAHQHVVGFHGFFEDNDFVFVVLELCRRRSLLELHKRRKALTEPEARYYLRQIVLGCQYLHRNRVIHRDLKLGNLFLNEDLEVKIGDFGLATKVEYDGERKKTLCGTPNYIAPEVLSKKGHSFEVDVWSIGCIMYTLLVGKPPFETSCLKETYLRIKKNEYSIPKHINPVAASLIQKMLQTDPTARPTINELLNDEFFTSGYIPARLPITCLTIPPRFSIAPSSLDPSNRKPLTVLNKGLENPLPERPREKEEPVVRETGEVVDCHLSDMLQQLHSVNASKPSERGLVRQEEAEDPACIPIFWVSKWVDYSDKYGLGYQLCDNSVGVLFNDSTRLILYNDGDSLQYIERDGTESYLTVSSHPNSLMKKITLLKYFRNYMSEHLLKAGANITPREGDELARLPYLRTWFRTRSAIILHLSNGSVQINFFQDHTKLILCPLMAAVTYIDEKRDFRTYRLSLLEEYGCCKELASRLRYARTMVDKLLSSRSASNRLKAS
Method: To assess the broader kinase selectivity of this series of 6-(dialkylamino)vinyl-purines, the diethylamino derivative 71 was chosen for wider screening against 24 kinases at 2 μM inhibitor concentration (Figure 5 – method as in reference 12).

[5] = target: T1, Nek2; assay: Nek2 inhibition reversibility assay (rapid dilution); assay type: biochemical; conditions: 30 min pre-incubation at ten-fold IC50, rapid 100-fold dilution
Method: The reversible nature of Nek2 inhibition by enamine 70 was measured using a kinase inhibition-reversibility assay. […] This solution in reaction buffer was pre-incubated with inhibitor 70 at a concentration ten-fold its IC50, calculated to afford approximately 91% inhibition of Nek2. […] Following rapid 1:100 dilution, a reaction progress curve was generated by monitoring for levels of the phosphorylated substrate as described in reference 16 using the Caliper EZ Reader II instrument at different times throughout the duration of the reaction.

[6] = target: T1, Nek2; assay: Effect of pre-incubation of Nek2 with inhibitor on IC50 (time-dependence); assay type: biochemical
From the text: www.impactjournals.com/oncotarget/ Oncotarget, Supplementary Materials 2016
Time after inhibitor addition
(1 picture or pasted object on this page, not shown here)

[7] = HPLC analysis of enamine stability in assay media, DMSO and pH buffers; assay type: physicochemical
Method: To determine whether the enamines were hydrolysed under the assay conditions, the stability of representative enamine derivative 72 was assessed in a range of assay media and pH buffers. Stock solutions of 72 in each of the various media were prepared and aliquots were extracted from each solution at various time points and subjected to HPLC analysis to measure the remaining intact enamine (Figure 9).
Solutions of 10 μM 72 were prepared in100% MEM media, 100% RPMI media, 10% (v/v) FCS in MEM, 10% BSA in water (v/v), 10 % FCS (v/v) in water, or 10 % (v/v) boiled FCS in water, DMSO and phosphate buffered water at pH 2, pH 7 and pH 10 by adding 10 μL of the 1 mM working stock of 72 in MeCN to 990 μL of each medium. A 50 μL aliquot was removed directly and immediately extracted as described below. At 5, 10, 15, 30, 60, 90, 120, 180, 240, 360 and 1440 minutes after addition of the drug further aliquots of 50 μL were taken and extracted as below. At each time point the 50 μL of the test solution was added to 50 μL of acetonitrile (MeCN). Samples were mixed for 10 seconds on a vortex mixer and centrifuged at 15700 rcf for 5 minutes in a microcentrifuge. The supernatant solution from each sample was placed into an HPLC vial for analysis. Samples were analysed by reverse phase HPLC with PDA detection.

[8] = HPLC analysis of enamine stability in human plasma; assay type: in vitro ADME; conditions: over a period of 24 hours
[9] = 10 min after inhibitor addition
[10] = 15 min after inhibitor addition
[11] = 30 min after inhibitor addition
[12] = 60 min after inhibitor addition

| SMILES | IC50 [3] [nM] | melting point | IC50 ([2]; Caliper assay) [nM] | other results |
| --- | --- | --- | --- | --- |
| C[C@@]12c3ccc4c(c3C(=O)c3occ(c31)C(=O)C[C@H]2O)CCC4=O [Compound 4] | – | – | – | IC50 [1]: 1900 nM |
| CC(C)CNC(=O)Cc1cccc(Nc2nc(OCC3CCCCC3)c3nc[nH]c3n2)c1 [Compound 34, 2-[3-(6-Cyclohexylmethoxy-9H-purin-2-anilino)]-N-isobutylacetamide] | 940 | 144 to 145 °C | – | inhibition at 50 µM [2]: 79% |
| O=C(Cc1cccc(Nc2nc(OCC3CCCCC3)c3nc[nH]c3n2)c1)NC1CCCC1 [Compound 35] | 1100 | 228 to 229 °C | 4100 | – |
| O=C(Cc1cccc(Nc2nc(OCC3CCCCC3)c3nc[nH]c3n2)c1)NC1CCCCC1 [Compound 36] | 2100 | 226 to 227 °C | 8400 | – |
| CN(C(=O)Cc1cccc(Nc2nc(OCC3CCCCC3)c3nc[nH]c3n2)c1)C1CCCCC1 [Compound 37] | 1600 | 134 to 135 °C | – | inhibition at 50 µM [2]: 26% |
| CC(C)N(C(=O)Cc1cccc(Nc2nc(OCC3CCCCC3)c3nc[nH]c3n2)c1)C(C)C [Compound 38] | 3200 | 126 to 127 °C | 21000 | – |
| CCCNC(=O)Cc1cccc(Nc2nc(OCC3CCCCC3)c3nc[nH]c3n2)c1 [Compound 39] | 740 | 141 to 142 °C (dec.) | – | inhibition at 50 µM [2]: 82% |
| O=C(Cc1cccc(Nc2nc(OCC3CCCCC3)c3nc[nH]c3n2)c1)NCCCO [Compound 40] | 800 | 132 to 133 °C | 1300 | – |
| O=C(Cc1cccc(Nc2nc(OCC3CCCCC3)c3nc[nH]c3n2)c1)NCCCn1ccnc1 [Compound 41, 2-[3-(6-Cyclohexylmethoxy-9H-purin-2-ylamino)phenyl]-N-(3-imidazol-1-yl-propyl)acetamide] | 1600 | 192 to 193 °C | 6130 | – |
| CN(C)CCNC(=O)Cc1cccc(Nc2nc(OCC3CCCCC3)c3nc[nH]c3n2)c1 [Compound 43, 2-[3-(6-Cyclohexylmethoxy-9H-purin-2-ylamino)phenyl]-N-(2-dimethylaminoethyl)acetamide] | 590 | 161 to 162 °C | 1000 | – |
| CN(C)CCCCNC(=O)Cc1cccc(Nc2nc(OCC3CCCCC3)c3nc[nH]c3n2)c1 [Compound 45, 2-[3-(6-Cyclohexylmethoxy-9H-purin-2-ylamino)phenyl]-N-(4-dimethylaminobutyl)acetamide] | 860 | 125 to 127 °C | 700 | – |
| CN1CCN(CCCNC(=O)Cc2cccc(Nc3nc(OCC4CCCCC4)c4nc[nH]c4n3)c2)CC1 [Compound 46, 2-[3-(6-Cyclohexylmethoxy-9H-purin-2-ylamino)phenyl]-N-[3-(4-methylpiperazin-1-yl)propyl]acetamide] | 2400 | 157 to 158 °C | 3600 | – |
| O=C(Cc1cccc(Nc2nc(OCC3CCCCC3)c3nc[nH]c3n2)c1)NCCCc1ccccc1 [Compound 47, 2-[3-(6-Cyclohexylmethoxy-9H-purin-2-ylamino)phenyl]-N-(3-phenylpropyl)acetamide] | 10000 | 154 to 155 °C | – | Nek2 IC50 ([2]; Caliper assay): Inactive |
| O=S(=O)(Cc1cccc(Nc2nc(OCC3CCCCC3)c3nc[nH]c3n2)c1)N1CCNCC1 [Compound 50, 1-(3-(6-Cyclohexylmethoxy-9H-purin-2-ylamino)phenylmethanesulfonyl)piperazine] | 450 | 127 to 128 °C | 2600 | – |
| CN(C)CCCNS(=O)(=O)Cc1cccc(Nc2nc(OCC3CCCCC3)c3nc[nH]c3n2)c1 [Compound 51, 1-[3-(6-Cyclohexylmethoxy-9H-purin-2-ylamino)phenyl]-N-(3-dimethylaminopropyl)methanesulfonamide] | 530 | 167 to 168 °C | 1420 | – |
| COc1ccc(CNS(=O)(=O)Cc2cccc(Nc3nc(OCC4CCCCC4)c4nc[nH]c4n3)c2)cc1 [Compound 52, 1-[3-(6-Cyclohexylmethoxy-9H-purin-2-ylamino)phenyl]-N-(4-methoxybenzyl)methanesulfonamide] | 3000 | 118 to 119 °C | – | inhibition at 100 µM ([2]; @ 100 μM compound): 38% |
| NS(=O)(=O)Cc1cccc(Nc2nc(OCC3CCCCC3)c3nc[nH]c3n2)c1 [Compound 53, [3-(6-Cyclohexylmethoxy-9H-purin-2-ylamino)phenyl]methanesulfonamide] | 240 | 134 to 135 °C | – | inhibition at 50 µM [2]: 81% |
| CCOc1nc(Nc2cccc(CC(=O)NCCCn3ccnc3)c2)nc2[nH]cnc12 [Compound 62, 2-[3-(6-Ethoxy-9H-purin-2-ylamino)-phenyl]-N-(3-imidazol-1-ylpropyl)acetamide] | 5200 | 176 to 177 °C | 2800 | – |
| O=C(NCCN1CCCCC1)Nc1ccc(Nc2ncc3nc[nH]c3n2)cc1 [Compound 65, 1-(4-((9H-purin-2-yl)amino)phenyl)-3-(2-(piperidin-1-yl)ethyl)urea] | – | 96 to 98 °C | 4500 | inhibition at 100 µM ([3]; @ 100 μM compound): 30% |
| O=C(Cc1cccc(Nc2ncc3nc[nH]c3n2)c1)NCCCn1ccnc1 [Compound 67, N-(3-Imidazol-1-yl-propyl)-2-[3-(9H-purin-2-ylamino)phenyl]acetamide] | > 100000 | 121 to 122 °C | 5900 | – |
| C(=C\N1CCCC1)/c1nc(Nc2ccccc2)nc2[nH]cnc12 [Compound 69, (E)-N-Phenyl-6-(2-(pyrrolidin-1-yl)vinyl)-9H-purin-2-amine] | 5800 | 138 to 140 °C | 340 | – |
| CN(C)/C=C/c1nc(Nc2ccccc2)nc2[nH]cnc12 [Compound 70, (E)-6-(2-(Dimethylamino)vinyl)-N-phenyl-9H-purin-2-amine] | 3000 | 129 to 131 °C | 770 | inhibition at 10 µM [4]: 41%; reversibility of Nek2 inhibition [5]: binds reversibly; also recorded: not an irreversible inhibitor; Hill slope ([6]; 2 min after inhibitor addition): 0.73; IC50 ([6]; 2 min after inhibitor addition): 1370 nM; Hill slope ([6]; 5 min after inhibitor addition): 0.59; IC50 ([6]; 5 min after inhibitor addition): 840 nM; Hill slope [6, 9]: 0.79; IC50 [6, 9]: 1580 nM; Hill slope [6, 10]: 0.71; IC50 [6, 10]: 1330 nM; Hill slope [6, 11]: 0.72; IC50 [6, 11]: 1060 nM; Hill slope [6, 12]: 0.85; IC50 [6, 12]: 1470 nM; time-dependence of Nek2 inhibition ([6]; pre-incubation 2-60 min): not to exhibit time-dependent Nek2 inhibition kinetics |
| C(=C\N1CCCCCC1)/c1nc(Nc2ccccc2)nc2[nH]cnc12 [Compound 72, (E)-6-(2-(Azepan-1-yl)vinyl)-N-phenyl-9H-purin-2-amine] | – | – | – | stability in DMSO ([7]; DMSO solutions, for over 24 h): stable; stability in standard assay media ([7]; MEM and RPMI media, 10 μM, HPLC): degraded at a similar rate; stability at acidic pH ([7]; pH 2.2): relatively stable; stability at neutral pH ([7]; pH 7): rapidly degraded; stability at basic pH ([7]; pH 10.4): rapidly degraded; stability in human plasma [8]: relatively stable |
| CN(C)[C@@H]1CCN(/C=C/c2nc(Nc3ccccc3)nc3[nH]cnc23)C1 [Compound 73, (R, E)-6-(2-(3-(Dimethylamino)pyrrolidin-1-yl)vinyl)-N-phenyl-9H-purin-2-amine] | 6900 | 136 to 138 °C | 3000 | – |
